Measured values taken from patent publication US6607890B1, “Mismatch-recognizing molecules” (Japan Science and Technology Corporation, priority 1999, dated 2003).

Legend:
Format in all cases: binding
G-A mismatched base pair = experiment: DNase I footprinting titration on 5′-32P labeled 52-mer double-stranded DNA, G-A mismatched site
Experimental: (§1) Accordingly, it was examined whether such a compound having two 1,8-naphthylidien moieties can be incorporated into chains of a nucleic acid by constructing a paring with each mismatched guanine in a case when mismatched base pairing of guanine—guanine exists in a double-stranded nucleic acid. 52-mer double-stranded DNA labeled with 5′-^32P having a GC base pair, a GA mismatched base pair and a GG mismatched base pair in the double-stranded DNA was prepared. The partial sequences of the corresponding parts are illustrated as follows.
(§2) Using this double-stranded DNA, an inhibited position of DNA cleavage by DNase I was analyzed by means of DNase I (DNA hydrolase) footprinting titration in the presence of the compound of the formula (III) at various concentrations.
(§3) FIG. 2 is a graph showing a relationship between an intensity of cleaved band and a concentration of added naphthyriidine in FIG. 1. […] In FIG. 2, the abscissa indicates concentration (M) of the compound of the formula (III) added. In FIG. 2, black circle (●) in the graph indicates mismatched site of G-G, and black triangle (▴) indicates mismatched site of G-A.
(§4) A double-stranded DNA was prepared by hybridizing 5′-end ^32P labeled 52-mer DNA to form mismatched base pairs with G-G and G-A (refer to the right figures in FIG. 1).
(§5) Various concentrations of the compound obtained in example 1 were added to the double-stranded DNA, and analyzed by DNA footprinting using DNase I.
(§6) The double-stranded DNA (<4 nM strand concentration) was incubated with the compound obtained in example 1, which was adjusted to various concentrations with tris-HCl buffer (10 mM, pH 7.6) containing NaCl (100 mM) and MgCl2 (5 mM), at 4° C. for 12 hours. 0.2 U DNase I (DNA hydrolase) was added thereto and incubated at 25° C. for […]. DNA was recovered by mans of ethanol precipitation and electrophoresed using a gel containing 12% polyacrylamide and 7M urea.

G-G mismatched base pair = experiment: DNase I footprinting titration on 5′-32P labeled 52-mer double-stranded DNA, G-G mismatched site
Experimental: as §1, §2, §3, §4, §5, §6

normal G-C base pair = experiment: DNase I footprinting titration on 5′-32P labeled 52-mer double-stranded DNA, normal G-C site; conditions: concentration increased from 0 up to 500 μM, FIG. 1
Experimental: as §1, §2
Cleavage by DNase I (DNA hydrolase) is shown in black and inhibition in a position of the cleavage by DNase is shown in white.
as §4
Various concentrations of the compound obtained in example 1 were added to the double-stranded DNA, and analyzed by DNA footprinting using DNase I. […]

[1] = calculated from DNase I footprinting titration (FIG. 2)

concentration from which the inhibitory action against cleavage initiates in the G-A mismatched site (G-A mismatched base pair; DNase I cleavage, FIG. 2): approximately 10^−6 M
inhibition of the cleavage in the G-A mismatched site (G-A mismatched base pair; at around (500 μM) compound): about 90%
binding constant to the mismatched base G-A [Ka (GAmis)] (G-A mismatched base pair; [1]): 16300 M⁻¹
concentration at which the cleavage in the G-G mismatched site is inhibited almost completely (G-G mismatched base pair; DNase I cleavage, FIG. 2): ≥ 10^−5 M
ratio of both binding constants [(Ka (GGmis))/(Ka (GAmis))] (G-G mismatched base pair; G-G versus G-A mismatch): 696
binding constant to the mismatched base G-G [Ka (GGmis)] (G-G mismatched base pair; [1]): 1.13e+07 M⁻¹
effect on DNase I cleavage at the normal G-C base pairing (normal G-C base pair): cleavage by DNase I occurs
Compound: Cc1ccc2ccc(NC(=O)CCNCCC(=O)Nc3ccc4ccc(C)nc4n3)nc2n1 [formula (III), dinaphthylidinamide]
